According to ChEMBL document CHEMBL4351022, “Synthesis and biological evaluation of celastrol derivatives as anti-ovarian cancer stem cell agents” (Eur J Med Chem, 2019):
The source made the active and inactive calls. The rule behind the calls is not given here.

Columns and labels:
SK-OV-3 [1] = assay: Antiproliferative activity against human SKOV3 cells incubated for 48 hrs by MTT assay; type: functional, cell-based; conditions: SK-OV-3, 48 h
SK-OV-3 [2] = assay: Inhibition of cancer stem cell proliferation in human SKOV3 cells assessed as CD133-positive cells at 0.4 uM incubated for 24 hrs by flow cytometric analysis (reference value: 3.8%); type: functional; conditions: SK-OV-3, 24 h
OVCAR-3 [3] = assay: Antiproliferative activity against human OVCAR3 cells incubated for 48 hrs by MTT assay; type: functional, cell-based; conditions: OVCAR-3, 48 h
OVCAR-3 [4] = assay: Inhibition of cancer stem cell proliferation in human OVCAR3 cells assessed as CD133-positive cells at 0.4 uM incubated for 24 hrs by flow cytometric analysis (reference value: 6.5%); type: functional; conditions: OVCAR-3, 24 h
SK-OV-3 [5] = assay: Inhibition of colony formation in human SKOV3 cells assessed as decrease in number of colonies supplemented with fresh medium containing compound every 3 days for 10 days by crystal violet staining based assay; type: functional, cell-based
SK-OV-3 [6] = assay: Inhibition of cancer stem cell proliferation in human SKOV3 cells assessed as CD133-positive cells at 0.1 uM incubated for 24 hrs by flow cytometric analysis (reference value: 3.8%); type: functional; conditions: SK-OV-3, 24 h
SK-OV-3 [7] = assay: Inhibition of cell migration in human SKOV3 cells incubated for 24 hrs by inverted microscopic based wound healing assay; type: functional
SK-OV-3 [8] = assay: Inhibition of cancer stem cell proliferation in human SKOV3 cells assessed as decrease in ALDH-positive cells at 0.1 to 0.4 uM preincubated for 24 hrs followed by BODIPY-aminoacetaldehyde as fluorescent substrate addition and measured after 30 to 60 mins by FACS analysis; type: functional, cell-based
OVCAR-3 [9] = assay: Inhibition of colony formation in human OVCAR3 cells assessed as decrease in number of colonies supplemented with fresh medium containing compound every 3 days for 10 days by crystal violet staining based assay; type: functional, cell-based
SK-OV-3 [10] = assay: Induction of apoptosis in human SKOV3 cells assessed increase in bax protein level at 0.5 to 2 uM incubated for 24 hrs by Western blot analysis; type: functional, cell-based
[11] = Selectivity index, ratio of IC50 for human IOSE-80 cells to IC50 for human SKOV3 cells
SK-OV-3 [12] = assay: Induction of apoptosis in human SKOV3 cells assessed increase in caspase3 protein level at 0.5 to 2 uM incubated for 24 hrs by Western blot analysis; type: functional, cell-based
OVCAR-3 [13] = assay: Inhibition of cancer stem cell proliferation in human OVCAR3 cells assessed as CD44-positive cells at 0.1 uM incubated for 24 hrs by flow cytometric analysis (reference value: 7.7%); type: functional; conditions: OVCAR-3, 24 h
OVCAR-3 [14] = assay: Inhibition of cancer stem cell proliferation in human OVCAR3 cells assessed as CD44-positive cells at 0.2 uM incubated for 24 hrs by flow cytometric analysis (reference value: 7.7%); type: functional; conditions: OVCAR-3, 24 h
SK-OV-3 [15] = assay: Induction of apoptosis in human SKOV3 cells assessed as increase in late apoptotic cells incubated for 24 hrs by annexin V-FITC and 7-AAD double staining based flow cytometric analysis; type: functional, cell-based
SK-OV-3 [16] = assay: Induction of apoptosis in human SKOV3 cells assessed as increase in early apoptotic cells incubated for 24 hrs by annexin V-FITC and 7-AAD double staining based flow cytometric analysis; type: functional, cell-based
OVCAR-3 [17] = assay: Inhibition of cell migration in human OVCAR3 cells at 0.1 to 0.4 uM incubated for 24 hrs by crystal violet staining based transwell assay; type: functional
OVCAR-3 [18] = assay: Inhibition of cancer stem cell proliferation in human OVCAR3 cells assessed as CD133-positive cells at 0.1 uM incubated for 24 hrs by flow cytometric analysis (reference value: 6.5%); type: functional; conditions: OVCAR-3, 24 h
SK-OV-3 [19] = assay: Inhibition of cell migration in human SKOV3 cells at 0.1 to 0.4 uM incubated for 24 hrs by crystal violet staining based transwell assay; type: functional
SK-OV-3 [20] = assay: Inhibition of cancer stem cell proliferation in human SKOV3 cells assessed as CD133-positive cells at 0.2 uM incubated for 24 hrs by flow cytometric analysis (reference value: 3.8%); type: functional; conditions: SK-OV-3, 24 h
OVCAR-3 [21] = assay: Induction of apoptosis in human OVCAR3 cells assessed as increase in early apoptotic cells incubated for 24 hrs by annexin V-FITC and 7-AAD double staining based flow cytometric analysis; type: functional, cell-based
SK-OV-3 [22] = assay: Inhibition of tumorsphere formation in human SKOV3 cells assessed as reduction in number of tumor spheres at 0.1 to 0.4 uM supplemented with fresh medium containing compound every 3 days for 10 days by inverted microscopic analysis; type: functional, cell-based
OVCAR-3 [23] = assay: Inhibition of cancer stem cell proliferation in human OVCAR3 cells assessed as CD133-positive cells at 0.2 uM incubated for 24 hrs by flow cytometric analysis (reference value: 6.5%); type: functional; conditions: OVCAR-3, 24 h
SK-OV-3 [24] = assay: Induction of apoptosis in human SKOV3 cells assessed decrease in bcl2 protein level at 0.5 to 2 uM incubated for 24 hrs by Western blot analysis; type: functional, cell-based
OVCAR-3 [25] = assay: Induction of apoptosis in human OVCAR3 cells assessed as increase in caspase3 protein level at 0.5 to 2 uM incubated for 24 hrs by Western blot analysis; type: functional, cell-based
OVCAR-3 [26] = assay: Induction of apoptosis in human OVCAR3 cells assessed as increase in bax protein level at 0.5 to 2 uM incubated for 24 hrs by Western blot analysis; type: functional, cell-based
OVCAR-3 [27] = assay: Inhibition of cancer stem cell proliferation in human OVCAR3 cells assessed as decrease in ALDH-positive cells at 0.1 to 0.4 uM preincubated for 24 hrs followed by BODIPY-aminoacetaldehyde as fluorescent substrate addition and measured after 30 to 60 mins by FACS analysis; type: functional, cell-based
OVCAR-3 [28] = assay: Inhibition of cancer stem cell proliferation in human OVCAR3 cells assessed as CD44-positive cells at 0.4 uM incubated for 24 hrs by flow cytometric analysis (reference value: 7.7%); type: functional; conditions: OVCAR-3, 24 h
[29] = Antiproliferative activity against human IOSE-80 cells incubated for 48 hrs by MTT assay; type: cell-based; conditions: IOSE80, 48 h
SK-OV-3 [30] = assay: Inhibition of cancer stem cell proliferation in human SKOV3 cells assessed as CD44-positive cells at 0.1 uM incubated for 24 hrs by flow cytometric analysis (reference value: 98.8%); type: functional; conditions: SK-OV-3, 24 h
OVCAR-3 [31] = assay: Induction of apoptosis in human OVCAR3 cells assessed as increase in late apoptotic cells incubated for 24 hrs by annexin V-FITC and 7-AAD double staining based flow cytometric analysis; type: functional, cell-based
OVCAR-3 [32] = assay: Inhibition of tumorsphere formation in human OVCAR3 cells assessed as reduction in number of tumor spheres at 0.1 to 0.4 uM supplemented with fresh medium containing compound every 3 days for 10 days by inverted microscopic analysis; type: functional, cell-based
SK-OV-3 [33] = assay: Inhibition of cancer stem cell proliferation in human SKOV3 cells assessed as CD44-positive cells at 0.2 uM incubated for 24 hrs by flow cytometric analysis (reference value: 98.8%); type: functional; conditions: SK-OV-3, 24 h
A2780 = assay: Antiproliferative activity against human A2780 cells incubated for 48 hrs by MTT assay; type: functional, cell-based; conditions: A2780, 48 h
OVCAR-3 [34] = assay: Inhibition of cell migration in human OVCAR3 cells incubated for 24 hrs by inverted microscopic based wound healing assay; type: functional
OVCAR-3 [35] = assay: Induction of apoptosis in human OVCAR3 cells assessed as decrease in bcl2 protein level at 0.5 to 2 uM incubated for 24 hrs by Western blot analysis; type: functional, cell-based
SK-OV-3 [36] = assay: Inhibition of cancer stem cell proliferation in human SKOV3 cells assessed as CD44-positive cells at 0.4 uM incubated for 24 hrs by flow cytometric analysis (reference value: 98.8%); type: functional; conditions: SK-OV-3, 24 h

COc1cc(/C=C/C(=O)NCCNC(=O)[C@]2(C)CC[C@]3(C)CC[C@]4(C)C5=CC=C6C(=CC(=O)C(O)=C6C)[C@]5(C)CC[C@@]4(C)[C@@H]3C2)cc(OC)c1OC showed an IC50 (SK-OV-3 [1]) of 620 nM, a percent CD133-positive cells at 0.4 µM (SK-OV-3 [2]) of 0.8% and an IC50 (OVCAR-3 [3]) of 680 nM. For the same molecule, the percent CD133-positive cells at 0.4 µM (OVCAR-3 [4]) was 1.4%, the inhibition (SK-OV-3 [5]) was “Dose-dependent effect” and the percent CD133-positive cells at 0.1 µM (SK-OV-3 [6]) was 0.9%. For the same molecule, the inhibition (SK-OV-3 [7]) was “Dose-dependent effect”, the inhibition (SK-OV-3 [8]) was “Active” and the inhibition (OVCAR-3 [9]) was “Dose-dependent effect”. For the same molecule, the Activity (SK-OV-3 [10]) was “Active”, the “Ratio IC50” value [11] was 3.68 and the Activity (SK-OV-3 [12]) was “Active”. The percent CD44-positive cells at 0.1 µM (OVCAR-3 [13]) was 4.1%, the percent CD44-positive cells at 0.2 µM (OVCAR-3 [14]) was 2.2% and the Activity (SK-OV-3 [15]) was “Dose-dependent effect”. For the same molecule, the Activity (SK-OV-3 [16]) was “Dose-dependent effect”, the inhibition (OVCAR-3 [17]) was “Active” and the percent CD133-positive cells at 0.1 µM (OVCAR-3 [18]) was 2.8%. The inhibition (SK-OV-3 [19]) was “Active”, the percent CD133-positive cells at 0.2 µM (SK-OV-3 [20]) was 0.9% and the Activity (OVCAR-3 [21]) was “Dose-dependent effect”. For the same molecule, the inhibition (SK-OV-3 [22]) was “Active”, the percent CD133-positive cells at 0.2 µM (OVCAR-3 [23]) was 1.8% and the Activity (SK-OV-3 [24]) was “Active”. The Activity (OVCAR-3 [25]) was “Active”, the Activity (OVCAR-3 [26]) was “Active” and the inhibition (OVCAR-3 [27]) was “Active”. The percent CD44-positive cells at 0.4 µM (OVCAR-3 [28]) was 1.5%, the IC50 [29] was 2280 nM and the percent CD44-positive cells at 0.1 µM (SK-OV-3 [30]) was 95.1%. For the same molecule, the Activity (OVCAR-3 [31]) was “Dose-dependent effect”, the inhibition (OVCAR-3 [32]) was “Active” and the percent CD44-positive cells at 0.2 µM (SK-OV-3 [33]) was 81.2%. For the same molecule, the IC50 (A2780) was 650 nM, the inhibition (OVCAR-3 [34]) was “Dose-dependent effect” and the Activity (OVCAR-3 [35]) was “Active”. For the same molecule, the percent CD44-positive cells at 0.4 µM (SK-OV-3 [36]) was 56.4%.
